Measurements taken from ChEMBL document CHEMBL3044820, “Evaluation of Benzenesulfonanilide Derivatives for the Control of Crucifers Clubroot” (1996).

Key:
Type in all cases: functional
Plasmodiophora brassicae [1] = test: Fungicidal activity against clubroot disease causing Plasmodiophora brassicae infested Brassica campestris under greenhouse condition assessed as disease incidence at 2 kg a.i/ha treated to soil measured after 40 to 50 days
Plasmodiophora brassicae [2] = test: Fungicidal activity against clubroot disease causing Plasmodiophora brassicae infested Brassica campestris under greenhouse condition assessed as disease incidence at 4 kg a.i/ha treated to soil measured after 40 to 50 days
Plasmodiophora brassicae [3] = test: Fungicidal activity against clubroot disease causing Plasmodiophora brassicae infested Brassica campestris under greenhouse condition assessed as disease incidence at 0.5 kg a.i/ha treated to soil measured after 40 to 50 days

SMILES | Activity (Plasmodiophora brassicae [1]) | Activity (Plasmodiophora brassicae [2]) | Activity (Plasmodiophora brassicae [3])
O=[N+]([O-])c1ccc(NS(=O)(=O)c2ccc([N+](=O)[O-])cc2)cc1 | 0% | 0% | –
O=[N+]([O-])c1ccc(S(=O)(=O)Nc2ccc([N+](=O)[O-])cc2Cl)cc1 | 0% | 0% | –
Cc1ccc(S(=O)(=O)Nc2c(C)cccc2[N+](=O)[O-])cc1[N+](=O)[O-] | 0% | 26% | –
Cc1ccc(S(=O)(=O)Nc2ccc([N+](=O)[O-])cc2C)c(C)c1 | 0% | 0% | –
N#Cc1cccc(S(=O)(=O)Nc2ccc([N+](=O)[O-])cc2Cl)c1 | 0% | 0% | –
O=[N+]([O-])c1ccc(NS(=O)(=O)c2cc(Cl)ccc2Cl)c(Cl)c1 | >91% | >91% | 26%
Cc1ccc(S(=O)(=O)Nc2ccc([N+](=O)[O-])cc2Cl)cc1[N+](=O)[O-] | >91% | >91% | 26%
O=[N+]([O-])c1ccc(NS(=O)(=O)c2cc(Cl)c(Cl)cc2Cl)c(Cl)c1 | >91% | >91% | 51%
Cc1ccc([N+](=O)[O-])cc1S(=O)(=O)Nc1c(Cl)cc([N+](=O)[O-])cc1Cl | >91% | >91% | 26%
Cc1ccc(S(=O)(=O)Nc2ccc([N+](=O)[O-])cc2)cc1[N+](=O)[O-] | 0% | 26% | –
Cc1cc([N+](=O)[O-])ccc1NS(=O)(=O)c1ccc(C)c([N+](=O)[O-])c1 | 0% | 0% | –
Cc1cc([N+](=O)[O-])ccc1NS(=O)(=O)c1ccc([N+](=O)[O-])cc1 | 0% | 0% | –
Cc1cc([N+](=O)[O-])ccc1NS(=O)(=O)c1cccc(C#N)c1 | 0% | 0% | –
Cc1ccc(S(=O)(=O)Nc2ccc([N+](=O)[O-])cc2C)cc1 | 0% | 0% | –
O=S(=O)(Nc1ccc(C(F)(F)F)cc1)c1ccc(Cl)c(Cl)c1 | 26% | >91% | 0%
N#Cc1cccc(S(=O)(=O)Nc2ccc(C(F)(F)F)cc2)c1 | 0% | 26% | –
O=S(=O)(Nc1ccc(C(F)(F)F)cc1Cl)c1cccc(C(F)(F)F)c1 | >91% | >91% | >91%
O=S(=O)(Nc1ccc(C(F)(F)F)cc1Cl)c1cc(C(F)(F)F)ccc1Cl | >91% | >91% | >91%
O=S(=O)(Nc1ccc(C(F)(F)F)cc1Cl)c1ccc(Cl)c(Cl)c1 | >91% | >91% | 51%
O=S(=O)(Nc1ccc(C(F)(F)F)cc1Cl)c1ccc(Cl)c(C(F)(F)F)c1 | >91% | >91% | 26%
O=S(=O)(Nc1ccc(C(F)(F)F)cc1Cl)c1ccc(Cl)cc1 | >91% | >91% | 26%
O=S(=O)(Nc1cc(C(F)(F)F)ccc1Cl)c1cccc(C(F)(F)F)c1 | >91% | >91% | 0%
N#Cc1ccc(NS(=O)(=O)c2cccc(C(F)(F)F)c2)c(Cl)c1 | 51% | >91% | 0%
CCOC(=O)c1ccc(NS(=O)(=O)c2cccc(C(F)(F)F)c2)cc1 | 0% | 0% | –
CCCOC(=O)c1ccc(NS(=O)(=O)c2cccc(C(F)(F)F)c2)cc1 | 0% | 0% | –
O=[N+]([O-])c1cc(Cl)c(NS(=O)(=O)c2ccc(Cl)cc2)c(Cl)c1 | >91% | >91% | 0%
Cc1ccc(S(=O)(=O)Nc2cc([N+](=O)[O-])ccc2Cl)cc1[N+](=O)[O-] | 0% | 26% | –
